In US20020019527A1 (priority 2000, published 2002):
Structures can show the parent of a compound that is named as a salt. Where two headings read alike, the source gives them in different places.

Biological target: T1, Farnesyltransferase (FTase) (Bos taurus, UniProt P29702+P49355)
T1 construct: precipitation from a beef brain homogenate; from tissue; host or cells: bovine brain
Assay: Farnesyltransferase inhibition (scintillation proximity assay, [3H]-FPP / biotin-K-ras peptide)
Type: biochemical, bovine
Experimental: Farnesyltransferase (FTase) or geranylgeranyltransferase I (GGTase I) fractions were isolated from bovine brains and purified by a series of methods which separate FTase from GGTase I and GGTase I from GGTase II. The methods involved a partial purification of all three enzymes by precipitation from a beef brain homogenate with 30% to 50% saturated […] followed by chromatography on DEAE Sepharose. […] The catalytic purity of each enzyme was assayed separately with substrate acceptor proteins specific for that enzyme. After quickly freezing in liquid nitrogen, the various prenyl transferases were stored at −80° C.
The quenched reactions stood for 1 hour before analysis in a Packard TopCount scintillation counter. Purified compounds were dissolved in 100% ethanol and diluted 10-fold into the assay.

[1] = compound at 10^−6 M, bovine FTase, 37° C., 30 minutes

T1 sequence (P49355 whole entry, one chain of several): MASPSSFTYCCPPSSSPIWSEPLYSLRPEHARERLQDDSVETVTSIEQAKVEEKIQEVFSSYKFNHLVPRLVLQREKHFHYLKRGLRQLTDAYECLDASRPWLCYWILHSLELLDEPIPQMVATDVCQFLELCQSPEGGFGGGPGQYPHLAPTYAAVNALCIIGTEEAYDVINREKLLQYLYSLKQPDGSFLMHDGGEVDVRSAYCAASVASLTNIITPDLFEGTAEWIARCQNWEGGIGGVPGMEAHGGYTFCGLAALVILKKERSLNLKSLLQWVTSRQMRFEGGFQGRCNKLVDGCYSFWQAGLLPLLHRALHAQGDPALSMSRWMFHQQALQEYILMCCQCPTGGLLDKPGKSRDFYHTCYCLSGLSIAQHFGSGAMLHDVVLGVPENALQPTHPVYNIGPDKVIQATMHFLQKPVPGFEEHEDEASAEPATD

inhibition at 1 µM [1] [%]	SMILES	further results
91	COc1ccccc1-c1cc(C(OCc2ccccc2)c2cncn2C)ccc1C#N (centres unmarked) [Example 5, 5-((benzyloxy)(1-methyl-1H-imidazol-5-yl)methyl)-2′-methoxy(1,1′-biphenyl)-2-carbonitrile hydrochloride]	–
61	Cn1cncc1C(OCc1ccccc1)c1ccc(C#N)c(-c2cccc(-c3ccccc3)c2)c1 (centres unmarked) [Example 6, 5-((benzyloxy)(1-methyl-1H-imidazol-5-yl)methyl)-3′-(phenyl)(1,1′-biphenyl)-2-carbonitrile hydrochloride]	–
100	CC(C)c1ccccc1-c1cc(C(OCc2ccccc2)c2cncn2C)ccc1C#N (centres unmarked) [Example 8, 5-((benzyloxy)(1-methyl-1H-imidazol-5-yl)methyl)-2′-isopropyl(1,1′-biphenyl)-2-carbonitrile hydrochloride]	–
100	Cn1cncc1C(OCC1CCCCC1)c1ccc(C#N)c(-c2cccc3ccccc23)c1 (centres unmarked) [Example 14, 4-((cyclohexylmethoxy)(1-methyl-1H-imidazol-5-yl)methyl)-2-(1-naphthyl)benzonitrile hydrochloride]	–
100	Cc1ccccc1-c1cc(C(NC2CCN(C(=O)c3ccccc3)CC2)c2cncn2C)ccc1C#N (centres unmarked) [Example 16, 5-(((1-benzoyl-4-piperidinyl)amino)(1-methyl-1H-imidazol-5-yl)methyl)-2′-methyl(1,1′-biphenyl)-2-carbonitrile dihydrochloride]	–
100	Cn1cncc1C(OCc1ccc(C#N)cc1)c1ccc(C#N)c(-c2cccc3cccnc23)c1 (centres unmarked) [Example 18, 4-(((4-cyanobenzyl)oxy)(1-methyl-1H-imidazol-5-yl)methyl)-2-(8-quinolinyl)benzonitrile dihydrochloride]	–
100	Cc1ccccc1-c1cc(C(NCC2CCCCC2)c2cncn2C)ccc1C#N (centres unmarked) [Example 24, 5-(((cyclohexylmethyl)amino)(1-methyl-1H-imidazol-5-yl)methyl)-2′-methyl(1,1′-biphenyl)-2-carbonitrile]	–
100	Cc1ccccc1-c1cc(C(NCc2ccc(C#N)cc2)c2cncn2C)ccc1C#N (centres unmarked) [Example 25, 5-(((4-cyanobenzyl)amino)(1-methyl-1H-imidazol-5-yl)methyl)-2′-methyl(1,1′-biphenyl)-2-carbonitrile]	–
100	CCN(Cc1ccc(C#N)cc1)C(c1ccc(C#N)c(-c2ccccc2C)c1)c1cncn1C (centres unmarked) [Example 28, 5-(((4-cyanobenzyl)(ethyl)amino)(1-methyl-1H-imidazol-5-yl)methyl)-2′-methyl(1,1′-biphenyl)-2-carbonitrile dihydrochloride]	–
100	CN(Cc1ccc(C#N)cc1)C(c1ccc(C#N)c(-c2cccc3ccccc23)c1)c1cncn1C (centres unmarked) [Example 29, 4-(((4-cyanobenzyl)(methyl)amino)(1-methyl-1H-imidazol-5-yl)methyl)-2-(1-naphthyl)benzonitrile]	–
100	CCCCN(Cc1ccc(C#N)cc1)C(c1ccc(C#N)c(-c2cccc3ccccc23)c1)c1cncn1C (centres unmarked) [Example 30, 4-((butyl(4-cyanobenzyl)amino)(1-methyl-1H-imidazol-5-yl)methyl)-2-(1-naphthyl)benzonitrile dihydrochloride]	–
100	Cn1cncc1C(NCCc1ccccc1)c1ccc(C#N)c(-c2cccc3ccccc23)c1 (centres unmarked) [Example 31, 4-((1-methyl-1H-imidazol-5-yl)(phenethylamino)methyl)-2-(1-naphthyl)benzonitrile]	–
93	Cc1ccccc1-c1cc(CN(Cc2ccccc2)Cc2cncn2C)ccc1C#N [Example 32, 5-((benzyl((1-methyl-1H-imidazol-5-yl)methyl)amino)methyl)-2′-methyl(1,1′-biphenyl)-2-carbonitrile dihydrochloride]	–
100	Cn1cncc1CN(Cc1ccc(C#N)cc1)Cc1ccc(C#N)c(-c2cccc3ccccc23)c1 [Example 34, 4-(((4-cyanobenzyl)((1-methyl-1H-imidazol-5-yl)methyl)amino)methyl)-2-(1-naphthyl)benzonitrile]	–
100	Cn1cncc1C(NCc1ccc(C#N)c(Cl)c1)c1ccc(C#N)c(-c2cccc3ccccc23)c1 (centres unmarked) [Example 35, 4-(((3-chloro4-cyanobenzyl)amino)(1-methyl-1H-imidazol-5-yl)methyl)-2-(1-naphthyl)benzonitrile dihydrochloride]	–
100	Cn1cncc1C(NCc1ccc(C#N)c(I)c1)c1ccc(C#N)c(-c2cccc3ccccc23)c1 (centres unmarked) [Example 37, 4-(((4-cyano-3-iodobenzyl)amino)(1-methyl-1H-imidazol-5-yl)methyl)-2-(1-naphthyl)benzonitrile dihydrochloride]	–
100	COC(=O)c1ccc(CNC(c2ccc(C#N)c(-c3cccc4ccccc34)c2)c2cncn2C)cc1 (centres unmarked) [Example 38, methyl 4-((((4-cyano-3-(1-naphthyl)phenyl)(1-methyl-1H-imidazol-5-yl)methyl)amino)methyl)benzoate]	–
100	Cn1cncc1CN(Cc1ccc(OC(F)(F)F)cc1)Cc1ccc(C#N)c(-c2cccc3ccccc23)c1 [Example 41, 4-((((1-methyl-1H-imidazol-5-yl)methyl)(4-(trifluoromethoxy)benzyl)amino)methyl)-2-(1-naphthyl)benzonitrile dihydrochloride]	–

More lines, now with the values behind:

SMILES	inhibition at 1 µM [1] [%]	further results
Cc1ccccc1-c1cc(C(Oc2ccccc2)c2cncn2C)ccc1C#N (centres unmarked) [Example 4, 2′-methyl-5-((1-methyl-1H-imidazol-5-yl)(phenoxy)methyl)(1,1′-biphenyl)-2-carbonitrile hydrochloride]	88	–
Cl.Cn1cncc1C(OCc1ccccc1)c1ccc(C#N)c(-c2c3ccccc3cc3ccccc23)c1 (centres unmarked) [Example 7]	–	% Inhibition at 10^−6M [1]: 92%
Cn1cncc1C(OCc1ccccc1)c1ccc(C#N)c(-c2ccc3c4c(cccc24)CC3)c1 (centres unmarked) [Example 9, 4-((benzyloxy)(1-methyl-1H-imidazol-5-yl)methyl)-2-(1,2-dihydro-5-acenaphthylenyl)benzonitrile hydrochloride]	64	–
Cn1cncc1C(OCc1ccccc1)c1ccc(C#N)c(-c2ccccc2Cl)c1 (centres unmarked) [Example 10, 5-((benzyloxy)(1-methyl-1H-imidazol-5-yl)methyl)-2′-chloro(1,1′-biphenyl)-2-carbonitrile hydrochloride]	94	–
Cc1ccccc1-c1cc(C(OCc2ccccc2)c2cncn2C)ccc1C#N (centres unmarked) [Example 11, 5-((benzyloxy)(1-methyl-1H-imidazol-5-yl)methyl)-2′-methyl(1,1′-biphenyl)-2-carbonitrile hydrochloride]	94	–
Cc1ccccc1-c1cc(C(NCc2ccc([N+](=O)[O-])cc2)c2cncn2C)ccc1C#N (centres unmarked) [Example 12]	–	% Inhibition at 10^−6M: 100%
Cn1cncc1C(NCc1ccc(C#N)cc1)c1ccc(C#N)c(-c2cccc3ccccc23)c1 (centres unmarked) [Example 13, 4-(((4-cyanobenzyl)amino)(1-methyl-1H-imidazol-5-yl)methyl)-2-(1-naphthyl)benzonitrile dihydrochloride]	100	–
Cc1ccccc1-c1cc(C(c2cncn2C)N2CCN(c3cccc(OC(F)(F)F)c3)C(=O)C2)ccc1C#N.Cl.Cl (centres unmarked) [Example 15]	–	% Inhibition at 10^−6M: 100%
Cl.Cl.Cn1cncc1C(NCc1ccc(S(C)(=O)=O)cc1)c1ccc(C#N)c(-c2cccc3ccccc23)c1 (centres unmarked) [Example 17]	–	% Inhibition at 10^−6M [1]: 100%
Cn1cncc1C(OCc1ccc(C#N)cc1)c1ccc(C#N)c(-c2ccnc3ccccc23)c1 (centres unmarked) [Example 19, 4-(((4-cyanobenzyl)oxy)(1-methyl-1H-imidazol-5-yl)methyl)-2-(4-quinolinyl)benzonitrile dihydrochloride]	100	–
Cc1ccccc1-c1cc(C(NCc2ccccc2)c2cncn2C)ccc1C#N (centres unmarked) [Example 23, 5-((benzylamino)(1-methy-1H-imidazol-5-yl)methyl)-2′-methyl(1,1′-biphenyl)-2-carbonitrile]	–	% Inhibition at 10^−6M [1]: 100%
Cc1ccccc1-c1cc(CNC(c2ccc(C#N)c(-c3ccccc3C)c2)c2cncn2C)ccc1C#N (centres unmarked) [Example 26]	–	% Inhibition at 10^−6M [1]: 100%
CCN(Cc1ccc([N+](=O)[O-])cc1)C(c1ccc(C#N)c(-c2ccccc2C)c1)c1cncn1C (centres unmarked) [Example 27, 5-((ethyl(4-nitrobenzyl)amino)(1-methyl-1H-imidazol-5-yl)methyl)-2′-methyl(1,1′-biphenyl)-2-carbonitrile dihydrochloride]	100	–
Cn1cncc1C(NCc1ccc(C#N)c(Br)c1)c1ccc(C#N)c(-c2cccc3ccccc23)c1 (centres unmarked) [Example 33, 4-(((3-bromo-4-cyanobenzyl)amino)(1-methyl-1H-imidazol-5-yl)methyl)-2-(1-naphthyl)benzonitrile dihydrochloride]	100	–
CC(NC(c1ccc(C#N)c(-c2cccc3ccccc23)c1)c1cncn1C)c1ccc(C#N)cc1 (centres unmarked) [Example 36, 4-(((1-(4-cyanophenyl)ethyl)amino)(1-methyl-1H-imidazol-5-yl)methyl)-2-(1-naphthyl)benzonitrile dihydrochloride]	100	–
Cn1cncc1C(NCc1ccc(C(=O)O)cc1)c1ccc(C#N)c(-c2cccc3ccccc23)c1 (centres unmarked) [Example 39, lithium 4-((((4-cyano-3-(1-naphthyl)phenyl)(1-methyl-1H-imidazol-5-yl)methyl)amino)methyl)benzoate]	100	–
Cn1cncc1CN(Cc1ccc(Cl)cc1)Cc1ccc(C#N)c(-c2cccc3ccccc23)c1 [Example 40, 4-(((4-chlorobenzyl)((1-methyl-1H-imidazol-5-yl)methyl)amino)methyl)-2-(1-naphthyl)benzonitrile dihydrochloride]	100	–
